The test system of this test is CEM cells HIV-1 protection, formazan growth assay. The test is described as follows: NCI AIDS Antiviral Assay. Particulars: for IC50: measured here: growth of uninfected CEM cells. The method, boiled down: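 Human CEM cells, uninfected and HIV-1-infected, received five drug concentrations, and growth was read by soluble formazan assay. Compounds giving at least 50% protection were retested; reproducible 100% protection defined confirmed active.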

“And” between values parts separate entries of the source, which are not always exact repeats. Equal values may be shown once. The source made the active and inactive calls.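 How the source made its calls: active means compounds giving half or more protection of infected cells from virus-caused growth loss, again on retest; inactive means the rest.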 Where a SMILES comes first, the peptide text is derived from it. The star is where a group is joined. Boc = CC(C)(C)OC(=O)*

By EC50 is commonly meant the midpoint of the concentration-response curve. In general, IC50 refers to the midpoint of a concentration-inhibition curve. The low end stands for higher potency, the high end for lower potency.

In the case of `CNS(=O)(=O)NNS(=O)(=O)c1ccc(Br)cc1`, the EC50 is > 75.9 µM and the IC50 is > 75.9 µM.

Regarding `CCOC(=O)c1cncc(C#N)c1`, the EC50 is > 200 µM and the IC50 was 105 µM.

Consider `OCC(O)C(O)C(O)C(O)c1nc2ccccc2s1` (configuration not stated), for which the EC50 is > 126 µM and the half-inhibitory concentration (IC50) is 97.7 µM.

Consider `Cn1c(=O)c(N=Nc2c(=O)n(C)c(=O)n3c2[nH]c2ccccc23)c2[nH]c3ccccc3n2c1=O`, for which the EC50 is > 33.9 µM and the IC50 is > 33.9 µM.

Take `CCOC(=O)n1c2ccccc2c2c(O)c(OC)c3c(c21)C(=O)NC3=O`: the EC50 is > 200 µM and the IC50 is 30.2 µM.

Consider `COc1cc2cc(C(=O)N3CC(CCl)c4ccc(N(C)C)cc43)[nH]c2c(OC)c1OC` (configuration not stated), for which the EC50 was > 2 µM and the IC50 came out at 0.138 µM.

Consider `CCOC(=O)CN1CCNCCN(CC(=O)OCC)CCNCC1`, for which the EC50 is > 100 µM and the IC50 came to 9.77 µM.

On to `Cc1cc(SSc2cc(C)c3ccccc3n2)nc2ccccc12`, for which the EC50 is > 200 µM and the IC50 was found to be 110 µM.

On to `Cn1c(=O)c2c(nc3n2CCCC(=O)N3CC(O)CCl)n(C)c1=O` (configuration not stated), for which the EC50 is > 200 µM and the IC50 is 85.1 µM.

Consider `N#CC(c1ccccc1)N(CCc1ccccc1)C(=O)Oc1ccccc1` (configuration not stated), for which the EC50 is > 200 µM and the half-inhibitory concentration (IC50) is > 200 µM.

With `CC(=O)c1c(-c2ccc(O)cc2)oc2cc(O)ccc12`, the EC50 was > 347 µM and the IC50 stood at 63.1 µM.

As to `Cc1cnc([C@H]2CCC3[C@@H]4CC=C5C[C@@H](OC(=O)CCC(=O)O)CC[C@]5(C)C4CC[C@@]32C)s1` (some centres not stated), the EC50 was > 52.5 µM and the IC50 is 50.1 µM.

Regarding `COC(=O)CNC(=O)C(CC(C)C)NC(=O)C(CC(C)C)NC(=O)OC(C)(C)C` (stereo not drawn) (Boc-Leu-Leu-Gly-OMe; configuration not given here), the outcome was inactive.

On to `CN(C)c1nc(N(C)C)nc(N2C(=O)CCC2=O)n1`, for which the EC50 is > 200 µM and the IC50 is > 200 µM.

As for `COc1ccc2nc3c([N+](=O)[O-])ccc4c3c(c2c1)NCCN4C`, the EC50 is > 100 µM and the IC50 came out at 0.513 µM.

For `CCOC(=O)CSc1nnc(CSc2nc(-c3ccccc3)c(-c3ccccc3)[nH]2)n1-c1ccccc1`, the EC50 was > 13.5 µM and the IC50 is > 13.5 µM.

Take `CCC1=NC(N/N=C/c2ccco2)=N/C1=C\c1ccco1`: the EC50 is > 200 µM and the IC50 is 110 µM.

`CC(=O)C1=C(O)CC2CC3c4[nH]c5ccccc5c4CCN3CC2C1` (configuration not stated): the EC50 was > 204 µM and the concentration for half-maximal inhibition (IC50) was 102 µM.

As to `Oc1cc(-c2ccccc2)cn2c1nc1ccccc12`, the EC50 was > 200 µM and the IC50 was 1.07 µM.

Consider `COC(=O)C1=C(C(=O)OC)N2c3ccccc3-n3c(-c4ccccc4)cc(OC)c3C2(C)C(C(=O)OC)=C1C(=O)OC` (configuration not stated), for which the EC50 is > 53.7 µM and the IC50 was > 53.7 µM.

Turning to `CC(=O)OC1[C@@H]2[C@@H](COC(c3c(F)cccc3Cl)N2OC(C)=O)O[C@H]1n1ccc(=O)[nH]c1=O` (some centres not stated), the EC50 is > 200 µM and the IC50 came out at 115 µM.

Consider `Cc1ccc2nc(NC(=O)C(=O)C(C(=O)c3ccc4ccccc4c3)C3OC(=O)c4ccccc43)sc2c1` (configuration not stated), for which the EC50 is > 50.1 µM and the half-maximal inhibitory concentration (IC50) came out at 25.7 µM.

For the molecule `Cc1cccc2oc3c(c(=O)c12)CC(O)C(C)(C)O3` (configuration not stated), the EC50 is > 200 µM and the IC50 was determined as 79.4 µM.

For `CCCc1cc(=O)oc2c3c(cc(OC(C)CI)c12)O[C@H](C)[C@@H](C)C3=O` (some centres not stated), the EC50 is > 87.1 µM and the IC50 was 21.4 µM.

In the case of `Cc1ccc(Nc2nc3ccccc3nc2NS(=O)(=O)c2ccc(N)cc2)cc1`, the EC50 was > 200 µM and the IC50 worked out at 43.7 µM.

Consider `CC(=O)c1ccc(NC(=O)C(=O)C(C(=O)/C=C/c2ccccc2)C2OC(=O)c3ccccc32)cc1` (configuration not stated), for which the EC50 was > 282 µM and the IC50 stood at 148 µM.

Take `COc1cc(C2SCC(=O)N2c2ccc(-n3c(-c4ccccc4)nc4ccccc4c3=O)cc2)ccc1O` (configuration not stated): the EC50 is > 200 µM and the half-maximal inhibitory concentration (IC50) stood at 102 µM.

For `CC(=O)c1ccc(C(=O)c2ccccc2C(=O)O)cc1`, the EC50 is > 200 µM and the IC50 is > 200 µM.

As to `O=C1c2cccc3cc([N+](=O)[O-])cc(c23)C(=O)N1Nc1ccc([N+](=O)[O-])cc1[N+](=O)[O-]`, the EC50 was > 200 µM and the IC50 was 9.77 µM.

Regarding `O=c1cc(-c2ccccc2)oc2cc(O)c(O)c(O)c12`, the EC50 was > 200 µM and the IC50 was 22.4 µM.

Take `O=C1OCC2=C1C(c1ccc3c(c1)OCO3)c1cc3c(cc1O2)OCO3` (configuration not stated): the EC50 was > 200 µM and the 50% inhibitory concentration (IC50) turned out to be 1.66 µM.

With `CN1C(=O)[C@@H]2N(CSC2(C)C)C1=S`, the EC50 is > 200 µM and the IC50 is > 200 µM.

As to `COC(=O)C(Cc1c[nH]c2ccccc12)NC(=O)C(Cc1c[nH]c2ccccc12)NC(=O)C(Cc1c[nH]c2ccccc12)NC(=O)C(Cc1c[nH]c2ccccc12)NC(=O)OC(C)(C)C` (configuration not stated) (Boc-WWWW-OMe; configuration not given here), the EC50 was > 100 µM and the IC50 came to 13.8 µM.

For the molecule `CC1(C)Oc2ccc3c(=O)cc(-c4ccc(F)cc4)oc3c2C1C(=O)O` (configuration not stated), the EC50 is > 200 µM and the IC50 was > 200 µM.

For `O=C1SC(c2ccccc2)(c2ccccc2)c2ccccc21`, the EC50 is > 4.79 µM and the IC50 was > 4.79 µM.

On to `[N-]=[N+]=Nc1ccc2c(c1)Sc1ccccc1N2CCCCN1CCN(C(=O)CCNC(=O)Cc2ccc(C(=O)c3ccccc3)cc2)CC1`, for which the EC50 is > 200 µM and the IC50 amounted to 3.89 µM.

As for `O=c1oc2ccccc2n1P(=O)(N1CCOCC1)N1CCOCC1`, the EC50 was > 251 µM and the IC50 is > 251 µM.

As to `O=C1C2C3C=C4c5ccccc5N(c5ccccc5)C4(C2C(=O)N1c1ccc([N+](=O)[O-])cc1)[C@H]1C(=O)N(c2ccc([N+](=O)[O-])cc2)C(=O)[C@@H]31` (some centres not stated), the EC50 was > 11 µM and the IC50 is > 11 µM.

Take `CC1=NN2C(c3ccc([N+](=O)[O-])cc3)=CSC2=NC(C)(C)C1`: the EC50 is > 158 µM and the IC50 is > 158 µM.

On to `COc1cc2c(cc1OC)C/C(=N\O)c1cc(OC)c(OC)cc1/C=C\2`, for which the EC50 was > 200 µM and the IC50 stood at 1.74 µM.

With `O=C1c2ccccc2CC12Cc1ccc3c(c1C2=O)CCCC3` (configuration not stated), the EC50 is > 200 µM and the IC50 was > 200 µM.

As to `COc1cccc(/C=N/[N-]C(=O)c2ccncc2)c1[O-].[OH3+].[Pd+2]`, the EC50 was > 16.6 µM and the IC50 was > 16.6 µM.

On to `COc1c2c(cc3c1OCO3)C13C=CC(OC)CC1N(CC3)C2` (configuration not stated), for which the EC50 was > 200 µM and the IC50 is > 200 µM.

Consider `COC(=O)N1CC2CC=CC(C2)c2ccccc21` (configuration not stated), for which the EC50 was > 204 µM and the IC50 was > 204 µM.

Consider `C#[N+]CCOP(=O)(OCC1OC(n2cc(C)c(=O)[nH]c2=O)CC1N=[N+]=[N-])O[C@H]1CC[C@@]2(C)C(=CC[C@H]3[C@@H]4CC[C@H](C(C)/C=C/C(CC)C(C)C)[C@@]4(C)CC[C@@H]32)C1` (some centres not stated), for which the 50% effective concentration (EC50) is 1.62 µM and 5.89 µM; the concentration for half-maximal inhibition (IC50) was > 200 µM.

Turning to `CC[N+]1(C)CCC(O)(c2ccccc2)C(C(=O)c2ccccc2)C1` (configuration not stated), the outcome was inactive.

Take `C/C=C1\CN2CCC34c5ccccc5N5C(=O)CCC(C1CC23)C54` (configuration not stated): the EC50 is > 42.7 µM and the IC50 was > 42.7 µM.

On to `CC1(c2ccc(Cl)cc2)OCC(CCl)O1` (configuration not stated), for which the EC50 was > 200 µM and the IC50 is > 200 µM.

`CC1(C)CNC(=O)C2=C(O1)C(=O)OC2`: the EC50 is > 1260 µM and the 50% inhibitory concentration (IC50) is > 1260 µM.

In the case of `COc1ccc(C2=Nc3cc(C)c(C)cc3NC(c3ccccc3)C2)cc1` (configuration not stated), the EC50 is > 200 µM and the IC50 was determined as 28.8 µM.

For the molecule `N#CC1(C#N)C(C#N)(C#N)C12CCCCC2Cl` (configuration not stated), the EC50 was > 20 µM and the half-inhibitory concentration (IC50) was > 20 µM.

For `O=C1NC(=O)C(COCc2ccccc2)C2=C1SCCC2` (configuration not stated), the EC50 was > 200 µM and the IC50 is > 200 µM.

Take `COc1ccc(Oc2c(OC)cc(NCCCCCN3C(=O)c4ccccc4C3=O)c3ncccc23)cc1`: the EC50 is > 100 µM and the IC50 is > 100 µM.

As to `COc1nc(N)c(N=O)c(OCc2ccccc2)n1`, the EC50 was > 200 µM and the IC50 was 3.98 µM.

Regarding `CCC12CCCN3CCC4(C(=Nc5cc(OC)ccc54)CC1)C32` (configuration not stated), the outcome was inactive.

On to `COc1ccc2nc3n(c2c1)C(c1c(Cl)cccc1Cl)SC3` (configuration not stated), for which the EC50 was > 200 µM and the concentration for half-maximal inhibition (IC50) is > 200 µM.

As for `CSc1nc2c(=O)n(-c3ccccc3)c(=S)n(-c3ccccc3)c2s1`, the EC50 was > 200 µM and the 50% inhibitory concentration (IC50) was determined as 117 µM.

As to `O=C1OC(N=P(c2ccccc2)(c2ccccc2)c2ccccc2)C(N=P(c2ccccc2)(c2ccccc2)c2ccccc2)=C1Cl` (configuration not stated), the EC50 was > 20 µM and the IC50 was 18.2 µM.

Take `CC(=O)O[C@H]1CC[C@H]2[C@@H]3CCC4=CC(=O)C=C[C@]4(O)[C@H]3CC[C@]12C`: the EC50 was > 200 µM and the IC50 was 10.2 µM.

Regarding `O=C(/C=C/c1ccccc1Cl)c1ccccc1Cl`, the EC50 was > 7.24 µM and the IC50 is > 7.24 µM.

In the case of `CCC12CCC[C@@]13C=C[C@H](O3)C(C)(C)C2=O` (some centres not stated), the result was inactive.

For the molecule `CC1OC(=O)N(CCCC=C2SCCCS2)C1=O` (configuration not stated), the outcome was inactive.

As to `CC1(C)CNC[C@](C)(OCCOC(c2ccccc2)(c2ccccc2)c2ccccc2)C(=O)NC(C)(C)CNC[C@@](C)(OCCOC(c2ccccc2)(c2ccccc2)c2ccccc2)C(=O)N1`, the EC50 was > 200 µM and the IC50 is > 200 µM.

For the molecule `NCCOc1c2occc2cc2ccc(=O)oc12`, the EC50 was > 275 µM and the IC50 came to 20.4 µM.

As to `O=C(CNc1ccc2c(=S)c3ccccc3[nH]c2c1)Nc1ccccc1-c1ccccc1NC(=O)CNc1ccc2c(=S)c3ccccc3[nH]c2c1`, the EC50 is > 13.8 µM and the IC50 is 4.47 µM.

In the case of `COc1cc(C(=O)C/C(CCC(=O)Nc2ccccc2[N+](=O)[O-])=N\NC(=O)CC#N)ccc1O`, the EC50 is > 537 µM and the IC50 came to 224 µM.

For the origin of these results see PubChem BioAssay AID179 (DTP/NCI, 2004).
